{"source": "patent US9192640B2", "about": "“Antiviral composition against flavivirus” (University Malaya, priority 2012, dated 2015)", "format_in_all_cases": "cell-based", "key": {"[1]": {"tested_on": "Japanese encephalitis virus", "assay": "Antiviral activity on Japanese encephalitis virus replication, baicalein added post-infection", "settings": "50 μg/ml, added post-infection to Vero cells, two days, vs non-treated cells", "procedure": "In order to evaluate the antiviral activity of baicalein after virus attachment to cells, virus inoculum consisting of 200 FFU JE was added to the monolayer Vero cells and the virus was allowed to adsorp to the Vero cells for one hour at a temperature of 37° C. Unadsorped viruses were removed by rinsing the Vero cells with sterile PBS for two times. Different concentrations of baicalein (12.5 μg/ml, 25.0 μg/ml, 50.0 μg/ml and 100.0 μg/ml) were mixed with 1.5% CMC containing cell-growth medium supplemented with 2% FBS respectively before incubated at 37° C. for two days. Then, the number of viral foci was determined."}, "[2]": {"tested_on": "dengue virus type-2 (DENV-2)", "assay": "Inhibition of DENV-2 attachment to host cells, baicalein added simultaneously with virus", "procedure": "(§1) In order to determine the prophylactic anti-dengue activity of baicalein, different concentrations of baicalein (6.25 μg/ml, 12.50 μg/ml, 25.0 μg/ml, and 50.0 μg/ml) were added to the Vero cell monolayers five hours before adding virus. After five hours of pre-infection treatment, the cells were washed twice with phosphate-buffered saline (PBS). Then, 200 FFU (focus-forming units) of dengue virus type-2 (DENV-2) was inoculated to the cells to produce infected cells. The infected cells were incubated at 37° C. for one hour. Then the infected cells were washed two times with PBS to eliminate the unadsorped viruses. Growth medium (the growing medium is but not limited to Eagle's minimal essential medium; EMEM) was supplemented with 2% fetal bovine serum (FBS), 1 mM non-essential amino acid solution, 1 mM L-glutamine solution, and 1.5% carboxymethyl cellulose (CMC) solution) was added to the infected cells in the microplate. The microplate was incubated at 37° C. for four days. The number of viral foci formed and the viral RNA level were determined. The prophylactic activity of baicalein against DENV-2 was measured by the decrease in the number of viral foci and reduction of viral RNA synthesis. The number of DENV-2 foci was counted using a stereomicroscope and the titer of virus was expressed as FFU. The percentage of foci reduction (RF %) compared against controls was calculated as follows: RF (%)=(C−T)×100/C, where, C is the mean of the number of foci for negative control (without baicalein) and T is the mean of the number of foci in treated wells. Reduction in the number of viral foci was further verified using quantitative RT-PCR (qRT-PCR) which determine the copy number of dengue virus specific RNA. The same procedure was repeated to Vero cells which were treated with only virus suspension without baicalein (non-treated cells) and this served as the untreated control.\nInhibition of DENV-2 attachment to host cells was evaluated by adding different concentrations (3.12 μg/ml, 6.25 μg/ml, 12.5 μg/ml, 25.0 μg/ml, and 50.0 μg/ml) of baicalein to Vero cells simultaneously with 200 FFU DENV-2. Then, the infected Vero cells were incubated at 37° C. for one hour in the presence of the respective concentration of baicalein. Following after, the infected Vero cells were washed two times using sterile PBS. Growth medium supplemented with 2% fetal bovine serum (FBS), 1 mM non-essential amino acid solution, 1 mM L-glutamine solution, and 1.5% carboxymethyl cellulose (CMC) solution) was added to the infected cells in the microplate. […] The number of viral foci formed and the viral RNA level were determined. The amount of viral RNA synthesis was determined using quantitative real time polymerase chain reaction amplification (qRT-PCR)."}, "[3]": {"tested_on": "dengue virus type-2 (DENV-2)", "assay": "Direct virucidal activity against DENV-2", "procedure": "as §1, with “The same procedure was repeated to Vero cells which were treated with only virus suspension without baicalein (non-treated cells) and this served as the untreated control.” left out\nIn order to determine the direct virucidal activity of baicalein against DENV-2, DENV-2 suspension containing 200 FFU was incubated with different concentrations of baicalein (1.56 μg/ml, 3.12 μg/ml, 6.25 μg/ml, 12.50 μg/ml, 25.0 μg/ml) at 37° C. for two hours to produce a treated viral suspension. […] The number of viral foci formed and the viral RNA level were determined."}, "[4]": {"tested_on": "dengue virus type-2 (DENV-2)", "assay": "Antiviral activity on DENV-2 replication, baicalein added post-infection", "procedure": "as §1, with “The same procedure was repeated to Vero cells which were treated with only virus suspension without baicalein (non-treated cells) and this served as the untreated control.” left out\nIn order to evaluate the antiviral activity of baicalein after virus attachment to cells, virus inoculum consisting of 200 FFU DENV-2 was added to the monolayer Vero cells and the virus was allowed to adsorp to the Vero cells for one hour at a temperature of 37° C. […] Then, the number of viral foci and viral RNA level were measured."}, "[5]": {"tested_on": "dengue virus type-2 (DENV-2)", "assay": "Prophylactic anti-dengue activity, pre-treatment of Vero cells (foci reduction and qRT-PCR)", "procedure": "as §1"}, "[6]": {"settings": "12.5 μg/ml, DENV-2 suspension incubated with baicalein at 37° C. for two hours before infecting Vero cells"}, "[7]": {"settings": "50 μg/ml, added after virus adsorption to Vero cells, four days, vs non-treated cells"}}}
{"smiles": "O=c1cc(-c2ccccc2)oc2cc(O)c(O)c(O)c12", "note": "[baicalein, 5,6,7-Trihydroxyflavone]", "values": [{"measurement": "reduction in number of Japanese encephalitis virus foci formed", "setting": "[1]", "result": "> 90", "unit": "%"}, {"measurement": "decrease in level of DENV-2 RNA production", "setting": "[2]; 25 μg/ml, added simultaneously with DENV-2 to Vero cells, qRT-PCR, vs non-treated cells", "result": "90.3%±1.6"}, {"measurement": "reduction in number of dengue virus foci formed", "setting": "[2]; 25 μg/ml, added simultaneously with DENV-2 to Vero cells, vs non-treated cells", "result": 76.6, "unit": "%"}, {"measurement": "decrease in DENV-2 RNA level at 50 μg/ml compared with 25 μg/ml", "setting": "[2]; 50 μg/ml, added simultaneously with DENV-2", "result": "Higher decrease in RNA level was observed"}, {"measurement": "IC50", "setting": "[2]; Dengue virus, DENV2, Vero", "result": 7.14, "unit": "µg/mL"}, {"measurement": "decrease in level of DENV-2 RNA production", "setting": "[3]; [6]", "result": "99.2%±0.4"}, {"measurement": "reduction in number of dengue virus foci formed", "setting": "[3]; [6]", "result": 97.93, "unit": "%"}, {"measurement": "IC50", "setting": "[3]; Dengue virus, DENV2, 2 h", "result": 1.55, "unit": "µg/mL"}, {"measurement": "decrease in level of DENV-2 RNA production", "setting": "[4]; [7]", "result": "84.9%±2.15"}, {"measurement": "reduction in number of dengue virus foci formed", "setting": "[4]; [7]", "result": 78.3, "unit": "%"}, {"measurement": "IC50", "setting": "[4]; Dengue virus, DENV2, Vero", "result": 6.46, "unit": "µg/mL"}, {"measurement": "reduction in level of dengue virus type-2 RNA production", "setting": "[5]; 50 μg/ml, Vero cells pre-treated five hours before infection, qRT-PCR, vs non-treated cells", "result": "39.5%±0.8"}, {"measurement": "reduction in number of dengue virus foci formed", "setting": "[5]; 50 μg/ml, Vero cells pre-treated five hours before infection, vs non-treated cells", "result": "~37", "unit": "%"}, {"measurement": "IC50", "setting": "[5]; Dengue virus, DENV2, Vero, read-out: IC50 in pretreatment of cells", "result": 109, "unit": "µg/mL"}]}
